These results are taken from patent US11591632B2, “Genetically-mutated bacterial strain for detecting estrogenic compound and method for detecting estrogenic compound using the same” (INDUSTRY-UNIVERSITY COOPERATION FOUNDATION HANYANG …, priority 2016, dated 2023).

The target of assay [1] is T1, hERα LBD (Homo sapiens, UniProt P03372).
T1 construct: hERα LBD (N304-T553: amino acid 304, asparagine, through amino acid 553, threonine); expressed in transfected cells; host or cells: E. coli FW102 OL2-62
T1 sequence (P03372 304-553): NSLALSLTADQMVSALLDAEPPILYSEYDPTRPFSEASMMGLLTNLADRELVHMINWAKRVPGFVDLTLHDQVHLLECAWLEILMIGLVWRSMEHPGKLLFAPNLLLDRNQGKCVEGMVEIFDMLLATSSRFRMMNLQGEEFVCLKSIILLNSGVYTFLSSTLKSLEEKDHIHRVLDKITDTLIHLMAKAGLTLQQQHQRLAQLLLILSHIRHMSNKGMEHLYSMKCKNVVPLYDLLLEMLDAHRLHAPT
T1 sequence (P48552 whole entry partner, the tested form may be a part): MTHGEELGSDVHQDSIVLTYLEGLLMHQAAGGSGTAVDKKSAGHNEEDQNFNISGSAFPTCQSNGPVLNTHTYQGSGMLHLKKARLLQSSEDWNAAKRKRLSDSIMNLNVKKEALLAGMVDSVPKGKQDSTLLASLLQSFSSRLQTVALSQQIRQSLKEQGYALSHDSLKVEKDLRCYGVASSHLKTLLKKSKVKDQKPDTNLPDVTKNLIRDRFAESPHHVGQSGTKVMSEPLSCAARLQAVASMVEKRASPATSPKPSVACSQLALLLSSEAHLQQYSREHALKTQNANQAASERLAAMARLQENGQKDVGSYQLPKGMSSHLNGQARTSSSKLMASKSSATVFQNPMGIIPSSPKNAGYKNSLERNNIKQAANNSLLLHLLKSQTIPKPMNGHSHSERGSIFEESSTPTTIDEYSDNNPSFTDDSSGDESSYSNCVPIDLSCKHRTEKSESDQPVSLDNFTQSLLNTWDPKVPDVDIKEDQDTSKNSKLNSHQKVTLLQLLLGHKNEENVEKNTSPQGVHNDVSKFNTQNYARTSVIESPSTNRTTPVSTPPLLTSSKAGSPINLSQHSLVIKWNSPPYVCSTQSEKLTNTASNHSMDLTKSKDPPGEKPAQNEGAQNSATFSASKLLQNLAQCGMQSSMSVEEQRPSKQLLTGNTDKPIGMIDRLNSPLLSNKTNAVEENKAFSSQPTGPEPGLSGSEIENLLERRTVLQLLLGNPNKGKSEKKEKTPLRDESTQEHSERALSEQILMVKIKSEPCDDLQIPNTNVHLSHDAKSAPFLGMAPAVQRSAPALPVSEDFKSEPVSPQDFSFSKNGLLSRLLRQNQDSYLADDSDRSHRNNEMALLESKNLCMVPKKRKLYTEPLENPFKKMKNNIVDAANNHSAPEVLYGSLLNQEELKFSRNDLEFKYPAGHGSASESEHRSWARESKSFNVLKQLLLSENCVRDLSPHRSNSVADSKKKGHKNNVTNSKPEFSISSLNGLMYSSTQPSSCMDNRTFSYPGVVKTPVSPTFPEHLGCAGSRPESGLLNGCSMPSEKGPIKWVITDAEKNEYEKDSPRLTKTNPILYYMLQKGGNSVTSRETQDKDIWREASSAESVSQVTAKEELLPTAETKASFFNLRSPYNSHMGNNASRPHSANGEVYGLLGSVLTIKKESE
T1 sequence (P0A7Z4 1-248 partner limits assumed): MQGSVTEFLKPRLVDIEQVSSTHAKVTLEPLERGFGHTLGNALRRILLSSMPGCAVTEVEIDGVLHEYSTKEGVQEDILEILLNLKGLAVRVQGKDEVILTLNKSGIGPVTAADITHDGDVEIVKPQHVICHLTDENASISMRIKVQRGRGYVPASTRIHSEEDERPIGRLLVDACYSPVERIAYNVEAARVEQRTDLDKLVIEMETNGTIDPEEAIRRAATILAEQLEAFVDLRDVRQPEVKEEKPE
T1 sequence (P03034 whole entry partner, the tested form may be a part): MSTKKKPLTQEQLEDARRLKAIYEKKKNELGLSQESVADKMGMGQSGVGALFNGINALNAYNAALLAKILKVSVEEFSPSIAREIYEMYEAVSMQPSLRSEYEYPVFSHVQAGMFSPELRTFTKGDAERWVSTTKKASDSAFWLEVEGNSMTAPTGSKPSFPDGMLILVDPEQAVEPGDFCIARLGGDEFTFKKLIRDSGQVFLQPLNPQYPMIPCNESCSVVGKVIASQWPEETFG
Type of assay: cell-based. The settings on record: E. coli FW102 OL2-62 pACλCI::RIP140-FLAG pBRαNTD::hERα LBD-FLAG, 20 μM IPTG, 30 minutes incubation. Here is the method: (§1) Afterward, estrogens and EDCs were added at corresponding concentrations, and the cells were further incubated for 30 minutes. Subsequently, 800 μL of the cells were harvested, and resuspended in 800 μL of a buffer solution (60 mM of Na2HPO4, 40 mM of NaH2PO4, 10 mM of KCl, 1 mM of MgSO47H2O, 400 μM of dithiothreitol), followed by measuring OD600 (cell content). Afterward, the cells were lysed by ultrasonication and treated with 160 μL of 4 mg/mL ONPG, and thus a time to change a color of the specimen into yellow was recorded. When the color of the specimen changed to yellow, the reaction was stopped with 400 μL of 1M Na2CO3.

Assay [2] relates to hERα LBD. As to conditions: LE7197, lacZ expression in Miller units, with IPTG, 30 minutes incubation. Here is the method: as §1, with “The E. coli FW102 OL2-62 pACλCI::TIF2 BD-FLAG pBRαNTD::hERα LBD-FLAG strain was inoculated, and cultured up to OD600˜ 0.4 (20 μM IPTG added; the inducible substance for inducing expression of λCI-TIF2 BD-FLAG and αNTD-hERα LBD-FLAG). Afterward, estrogens” for “Afterward, estrogens”
Afterward, through β-galactosidase analysis, the expression of a reporter gene, the lacZ gene, was expressed in terms of Miller units.

On to `CC(C)(c1ccc(O)cc1)c1ccc(O)cc1` [bisphenol A], for which the “Miller units as a function of compound concentration in the specimen” value in assay [1] is “the higher the Miller units”.
For the compound `Oc1ccc(Cc2ccc(O)cc2)cc1` [bisphenol F], the “concentration that can be sensed/detected by sensor strain” value in assay [2] is on record as “several hundred”.
On to `O=S(=O)(c1ccc(O)cc1)c1ccc(O)cc1` [bisphenol S], for which the “concentration that can be sensed/detected by sensor strain” value in assay [2] is “several hundred”.
For the compound nonylphenol, in assay [1], the “Miller units as a function of compound concentration in the specimen” value is listed as “the higher the Miller units”. Besides, the “concentration that can be sensed/detected by sensor strain” value in assay [2] is listed as “approximately 100 nM”.
